Measurements: patent US10556865B2, “Synergistic herbicidal composition containing certain pyridine or pyrimidine carboxylic acids and certain cereal and rice herbicides” (Dow AgroSciences, LLC, priority 2007, dated 2020)

Columns and labels:
Type in all cases: in vivo
[1] = system: Canada thistle (Cirsium arvense L; CIRAR); assay: Postemergence herbicidal activity of mixtures in cereal crops (greenhouse, visual injury)
Experimental: (§1) The plants were grown for 7-36 days in a greenhouse with an approximate 14 hour photoperiod which was maintained at about 18° C. during the day and 17° C. during the night. Nutrients and water were added on a regular basis and supplemental lighting was provided with overhead metal halide 1000-Watt lamps as necessary. The plants were employed for testing when they reached the second or third true leaf stage.
(§2) Treatments consisted of compound (as listed in Tables 1 through 64) and a second cereal herbicide alone and in combination. […] Control plants were sprayed in the same manner with the solvent blank.
(§3) The treated plants and control plants were placed in a greenhouse as described above and watered by sub-irrigation to prevent wash-off of the test compounds. After 20-22 days, the condition of the test plants as compared with that of the control plants was determined visually and scored on a scale of 0 to 100 percent where 0 corresponds to no injury and 100 corresponds to complete kill.
(§4) The following equation was used to calculate the expected activity of mixtures containing two active ingredients, A and B: Expected=A+B−(A×B/100)

[2] = system: bird's-eye speedwell (Veronica persica L; VERPE); assay: as above
Experimental: as §1, §2, §3, §4

[3] = system: wild pansy (Viola tricolor L; VIOTR); assay: as above
Experimental: as §1, §2, §3, §4

[4] = system: wild oats (Avena fatua L; AVEFA); assay: as above; conditions: 25 g/ha, Table 17
Experimental: (§5) Seeds of the desired test plant species were planted in Sun Gro MetroMix® 306 planting mixture, which typically has a pH of 6.0 to 6.8 and an organic matter content of about 30 percent, in plastic pots with a surface area of 103.2 square centimeters (cm^2). […] The plants were grown for 7-36 days in a greenhouse with an approximate 14 hour photoperiod which was maintained at about 18° C. during the day and 17° C. during the night. Nutrients and water were added on a regular basis and supplemental lighting was provided with overhead metal halide 1000-Watt lamps as necessary. The plants were employed for testing when they reached the second or third true leaf stage.
(§6) Treatments consisted of compound (as listed in Tables 1 through 64) and a second cereal herbicide alone and in combination. […] The concentrated stock solutions were diluted to 1.5 mg ai/mL with the addition of 2 volumes of an aqueous mixture containing acetone, water, isopropyl alcohol, DMSO, Agri-dex crop oil concentrate, and Triton® X-77 surfactant in a 64.7:26.0:6.7:2.0:0.7:0.01 v/v ratio. A dilution solution was prepared by mixing 1 volume of 97:3 v/v acetone/DMSO and 2 volumes of an aqueous mixture containing acetone, water, isopropyl alcohol, DMSO, Agri-dex crop oil concentrate, and Triton® X-77 surfactant in a 64.7:26.0:6.7:2.0:0.7:0.01 v/v ratio. Compound requirements are based upon a 12 mL application volume at a rate of 187 liters per hectare (L/ha). […] Formulated compounds were applied to the plant material with an overhead Mandel track sprayer equipped with 8002E nozzles calibrated to deliver 187 L/ha over an application area of 0.503 square meters (m^2) at a spray height of 18 inches […] above average plant canopy. Control plants were sprayed in the same manner with the solvent blank.
as §3
(§7) Colby's equation was used to determine the herbicidal effects expected from the mixtures (Colby, S. R. 1967. Calculation of the synergistic and antagonistic response of herbicide combinations. Weeds 15:20-22.).
as §4

[5] = system: windgrass (Apera spica-venti L; APESV); assay: as above; conditions: Apera spica-venti, post-emergence, read-out: APESV Ob
Experimental: as §5, §6, §3, §7, §4

[6] = system: Italian ryegrass (Lolium multiflorum L; LOLMU); assay: as above; conditions: for LOLMU Ob: 25 g/ha
Experimental: (§8) Seeds of the desired test plant species were planted in Sun Gro MetroMix® 306 planting mixture, which typically has a pH of 6.0 to 6.8 and an organic matter content of about 30 percent, in plastic pots with a surface area of 103.2 square centimeters (cm^2). When required to ensure good germination and healthy plants, a fungicide treatment and/or other chemical or physical treatment was applied. The plants were grown for 7-36 days in a greenhouse with an approximate 14 hour photoperiod which was maintained at about 18° C. during the day and 17° C. during the night. Nutrients and water were added on a regular basis and supplemental lighting was provided with overhead metal halide 1000-Watt lamps as necessary. The plants were employed for testing when they reached the second or third true leaf stage.
(§9) Treatments consisted of compound (as listed in Tables 1 through 64) and a second cereal herbicide alone and in combination. Weighed amounts of esters (methyl) or salts (TEA [triethylammonium], K [potassium]) of 4-amino-3-chloro -6-(4-chloro-2-fluoro-3-methoxyphenyl)pyridine-2-carboxylic acid (Compound A) or of 6-amino-5-chloro-2-(4-chloro-2-fluoro-3-methoxyphenyl)pyrimidine-4-carboxylic acid (Compound B), were placed in 25 milliliter (mL) glass vials and dissolved in a volume of 97:3 v/v acetone/DMSO to obtain 4.5 milligrams (mg) active ingredient (ai)/mL stock solutions. […] The concentrated stock solutions were diluted to 1.5 mg ai/mL with the addition of 2 volumes of an aqueous mixture containing acetone, water, isopropyl alcohol, DMSO, Agri-dex crop oil concentrate, and Triton® X-77 surfactant in a 64.7:26.0:6.7:2.0:0.7:0.01 v/v ratio. A dilution solution was prepared by mixing 1 volume of 97:3 v/v acetone/DMSO and 2 volumes of an aqueous mixture containing acetone, water, isopropyl alcohol, DMSO, Agri-dex crop oil concentrate, and Triton® X-77 surfactant in a 64.7:26.0:6.7:2.0:0.7:0.01 v/v ratio. Compound requirements are based upon a 12 mL application volume at a rate of 187 liters per hectare (L/ha). Spray solutions of the second cereal herbicide and experimental compound mixtures were prepared by adding the stock solutions to the appropriate amount of dilution solution to form 12 mL spray solution with active ingredients in two- and three-way combinations. Formulated compounds were applied to the plant material with an overhead Mandel track sprayer equipped with 8002E nozzles calibrated to deliver 187 L/ha over an application area of 0.503 square meters (m^2) at a spray height of 18 inches (43 cm) above average plant canopy. Control plants were sprayed in the same manner with the solvent blank.
as §3, §7, §4

[7] = system: annual bluegrass (Poa annua L; POAAN); assay: as above; conditions: 25 g/ha
Experimental: as §8, §9, §3, §7, §4

[8] = system: downy brome (Bromus tectorum L; BROTE); assay: as above
Experimental: as §8, §9, §3, §7, §4

[9] = system: rigid ryegrass (Lolium rigidum L; LOLRI); assay: as above
Experimental: as §8, §9, §3, §7, §4

[10] = system: scented mayweed (Matricaria chamomila L; MATCH); assay: as above
Experimental: as §1, §2, §3, §4

[11] = system: black mustard (Brassica nigra L; BRSNI); assay: as above; conditions: Brassica, post-emergence, read-out: BRSNI Ob
Experimental: as §8, §9, §3, §7, §4

[12] = system: kochia (Kochia scoparia L; KCHSC); assay: as above; conditions: 450 g/ha alone
Experimental: as §8, §9, §3, §7, §4

[13] = system: chickweed (Stellaria media L; STEME); assay: as above; conditions: for pest or weed control at 140 g/ha: 140 g/ha alone
Experimental: as §8, §9, §3, §7, §4

[14] = system: Leptochloa chinensis (L.) NEES (LEFCH); assay: Postemergence herbicidal mixtures for weed control in direct seeded rice (greenhouse, visual % injury); conditions: for % Injury Ob: LEFCH
Cyperus iria L. (CYPIR) = assay: as above; conditions: CYPIR
[15] = system: wild buckwheat (Polygonum convolvulus L; POLCO); assay: Postemergence herbicidal activity of mixtures in cereal crops (greenhouse, visual injury)
Experimental: as §8, §9, §3, §7, §4

[16] = system: Ipomoea hederacea (L.) JACQ. (IPOHE); assay: Postemergence herbicidal mixtures for weed control in direct seeded rice (greenhouse, visual % injury after 3 weeks); conditions: IPOHE
[17] = system: annual ryegrass (Lolium multiflorum L; LOLMG); assay: Postemergence herbicidal activity of mixtures in cereal crops (greenhouse, visual injury); conditions: 125 g/ha, Table 13
Experimental: as §5, §6, §3, §7, §4

[18] = system: littleseed Canarygrass (Phalaris minor L; PHAMI); assay: as above; conditions: 125 g/ha, Table 13
Experimental: as §5, §6, §3, §7, §4

[19] = Stellaria media, post-emergence, read-out: STEME Ob

COc1cc(OC)nc(NC(=O)NS(=O)(=O)N(C)S(C)(=O)=O)n1 [Amidosulfuron]
CIRAR Ob ([1]; 10 g/ha): 20%
pest or weed control at 10 g/ha ([2]; Veronica persica, post-emergence, 10 g/ha, read-out: VERPE Ob): 5%
pest or weed control at 10 g/ha ([3]; Viola tricolor, post-emergence, 10 g/ha, read-out: VIOTR Ob): 5%

CCCOc1nn(C(=O)NS(=O)(=O)c2ccccc2C(=O)OC)c(=O)n1C [Propoxycarbazone-Na, methyl 2-[[[(4,5-dihydro-4-methyl-5-oxo-3-propoxy-1H-1,2,4-triazol-1-yl)carbonyl]amino]sulfonyl]benzoate, reference compound]
AVEFA Ob [4]: 76%
pest or weed control at 25 g/ha ([5]; 25 g/ha, Table 17): 90%
LOLMU Ob ([6]; Table 10): 17%
LOLMU Ob ([6]; Table 17): 15%
POAAN Ob ([7]; Table 10): 7%
POAAN Ob ([7]; Table 17): 5%
BROTE Ob ([8]; 25 g/ha, Table 10): 92%
LOLRI Ob ([9]; 25 g/ha, Table 17): 10%
pest or weed control at 15 g/ha ([2]; Veronica persica, post-emergence, 15 g/ha, read-out: VERPE Ob): 5%
pest or weed control at 15 g/ha ([10]; Matricaria, post-emergence, 15 g/ha, read-out: MATCH Ob): 50%

Cc1ccc(NC(=O)N(C)C)cc1Cl [Chlorotoluron]
pest or weed control at 450 g/ha ([11]; 450 g/ha alone): 50%
KCHSC Ob [12]: 50%

COc1cc(OC)nc(NC(=O)NS(=O)(=O)c2cc(CNS(C)(=O)=O)ccc2C(=O)O)n1 [Mesosulfuron, 2-[[[[(4,6-dimethoxy-2-pyrimidinyl)amino]carbonyl]amino]sulfonyl]-4-[[(methylsulfonyl)amino]-methyl]benzoic acid, reference compound]
pest or weed control at 3.75 g/ha ([5]; 3.75 g/ha, Table 15): 93%
pest or weed control at 3.75 g/ha ([13]; Stellaria media, post-emergence, 3.75 g/ha, read-out: STEME Ob): 0%
BROTE Ob ([8]; 3.75 g/ha, Table 15): 75%
BROTE Ob ([8]; 3.8 g/ha, Table 8): 73%
CIRAR Ob ([1]; 3.75 g/ha): 20%
pest or weed control at 3.75 g/ha ([10]; Matricaria, post-emergence, 3.75 g/ha, read-out: MATCH Ob): 5%

COC(=O)c1c(Cl)nn(C)c1S(=O)(=O)NC(=O)Nc1nc(OC)cc(OC)n1 [Halosulfuron-methyl]
% Injury LEFCH Ob ([14]; alone 26 g/ha): 0%
% Injury LEFCH Ob ([14]; alone 52 g/ha): 0%

COc1nc(C)nc(N(C)C(=O)NS(=O)(=O)c2ccccc2C(=O)O)n1 [Tribenuron]
CIRAR Ob ([1]; 3.75 g/ha): 20%

COc1ncc(F)c2nc(S(=O)(=O)Nc3c(F)cccc3F)nn12 [Florasulam]
CIRAR Ob ([1]; 1.25 g/ha): 20%
VERPE Ob ([2]; 1.25 g/ha): 5%
VERPE Ob ([2]; 1.3 g/ha alone): 28%
MATCH Ob ([10]; 1.3 g/ha alone): 83%
VIOTR Ob ([3]; 1.25 g/ha): 10%
VIOTR Ob ([3]; 1.3 g/ha alone): 53%

O=C(O)CCCc1c[nH]c2ccccc12 [Indol-3-butyric acid]
pest or weed control at 140 g/ha ([11]; 140 g/ha alone): 0%
pest or weed control at 140 g/ha [13, 19]: 0%

N#Cc1cc(Br)c(O)c(Br)c1 [Bromoxynil]
pest or weed control at 70 g/ha ([11]; 70 g/ha): 50%
pest or weed control at 70 g/ha ([13]; Stellaria media, post-emergence, 70 g/ha, read-out: STEME Ob): 0%
pest or weed control at 70 g/ha ([10]; Matricaria, post-emergence, 70 g/ha, read-out: MATCH Ob): 0%

COc1nc(C)nc(NC(=O)NS(=O)(=O)c2ccsc2C(=O)O)n1 [Thifensulfuron]
CIRAR Ob ([1]; 3.75 g/ha): 20%

CC1(C)CON(Cc2ccccc2Cl)C1=O [Clomazone]
% Injury Ob ([14]; 560 g/ha alone): 40%
% Injury Ob (Cyperus iria L. (CYPIR); 560 g/ha alone): 0%
% Injury Ob (Cyperus iria L. (CYPIR); 1120 g/ha alone): 0%

O=C(O)Cc1c[nH]c2ccccc12 [Indol-3-acetic acid]
pest or weed control at 140 g/ha [13, 19]: 0%
POLCO Ob ([15]; 140 g/ha alone): 0%
pest or weed control at 140 g/ha ([10]; Matricaria, post-emergence, 140 g/ha alone, read-out: MATCH Ob): 0%

COc1nc(C)nc(=NC(=O)NS(=O)(=O)c2ccccc2C(=O)O)[nH]1 [Metsulfuron]
CIRAR Ob ([1]; 3.75 g/ha): 20%

C/C(=N\NC(=O)Nc1cc(F)cc(F)c1)c1ncccc1C(=O)O [Diflufenzopyr]
% Injury Ob ([16]; 4.38 g/ha alone): 10%
% Injury Ob ([16]; 8.75 g/ha alone): 40%
% Injury Ob ([16]; 17.5 g/ha alone): 60%
% Injury Ob ([16]; 35 g/ha alone): 65%
% Injury Ob ([14]; 8.75 g/ha alone): 0%
% Injury Ob (Cyperus iria L. (CYPIR); 4.38 g/ha alone): 10%
% Injury Ob (Cyperus iria L. (CYPIR); 8.75 g/ha alone): 15%
% Injury Ob (Cyperus iria L. (CYPIR); 17.5 g/ha alone): 20%
% Injury Ob (Cyperus iria L. (CYPIR); 35 g/ha alone): 30%

CC(C)N1C(=O)c2ccccc2NS1(=O)=O [Bentazone]
pest or weed control at 120 g/ha ([11]; 120 g/ha): 50%
POLCO Ob ([15]; 120 g/ha): 0%

2-[4,5-dihydro-4-methyl-4-(1-methylethyl)-5-oxo-1H-imidazol-2-yl]-4(or 5)-methylbenzoic acid [Imazamethabenz, reference compound]
LOLMG Ob [17]: 0%
PHAMI [18]: 0%
LOLMU ([6]; 125 g/ha, Table 13): 0%
STEME Ob ([13]; 125 g/ha): 10%
LOLRI ([9]; 125 g/ha, Table 13): 0%
MATCH Ob ([10]; 125 g/ha): 0%
